Results reported in patent US20160237158A1, “Methods and Compositions for Targeting Tumor Microenvironment and for preventing Metastasis” (INSTITUT NATIONAL DE LA SANTÉ ET DA LA RECHERCHE MÉDICALE …, priority 2013, published 2016).

What was measured:
hDF [1] = test: Fibronectin expression in hDF; type: cell-based, human; conditions: TGFβ1 stimulation
Experimental: Cells were grown on glass coverslips, fixed in 3% paraformaldehyde for 20 min at room temperature, rinsed twice in PBS and in 50 mM NH4Cl for 10 min and permeabilized with 0.5% Triton X-100 for 5 min. Cells were next blocked in PBS containing 1% bovine serum albumin (BSA) for 30 min and incubated with anti-alpha smooth muscle actin (1/400), or anti-fibronectin (1/400) antibodies in blocking buffer overnight at 4° C. After two washes in PBS, cells were incubated in the presence of a secondary antibody conjugated to Alexa 488 (1/400) for 40 min, rinsed twice in PBS, stained with DAPI (2 ug/ml) for 5 min, rinsed in water and the coverslips mounted onto glass slides using mounting media.

fibroblasts [2] = test: Fibroblast contractility (collagen lattices) and pro-invasive activity (organotypic invasion) induced by human tumour cell conditioned media; type: cell-based; design: key to Fibroblasts contractile & pro-invasive phenotype: +: induction; −: no induction
Experimental: (§1) In this assay, hDF or CAFs were cultured during one week in serum-free medium (with either vehicle or cytokines) or CM before embedding in matrix gel. 5×10^5 fibroblasts were embedded in a 1 ml mixture of collagen I and Matrigel18. After the gel was set at 37° C. for 1 h, 5×10^5 SCC12 were plated on top of the gel in complete media. The next day, the gel was lifted onto individual collagen coated nylon discs resting on metal bridges and fed from underneath with daily changes of complete media (with either vehicle or inhibitors), allowing the epithelial layer to grow at an air-liquid interface.
(§2) After 5 days, cultures were fixed (4% paraformaldehyde+0.25% glutaraldehyde in PBS) and processed for haematoxylin and eosin (H&E) staining by standard methods. Invasion assay was measuring the total area of SCC cells and the area of non-invading SCC cells using imageJ software (http://rsbweb.nih.gov/ij/). The value of invasion index shown is the average 1−(non-invading area/total area) of at least ten fields from three or more independent experiments. Error bars are the standard deviation.
(§3) 2.5×10^4 Fibroblasts were embedded in 100 μl of matrix gel (the Collagen-Matrigel mixture used for organotypic invasion assays) and plated into wells of a 96 well plate^57. After 1 h at 37° C., the matrices were overlaid with 100 μl serum-free medium (with either vehicle, cytokines or inhibitors) or CM. Every 2 days, medium was changed and at day 6 the gels were photographed and the respective diameters of the well and gel were measured using ImageJ. The percentage contraction was calculated using the formula 100*(well diameter−gel diameter)/well diameter.
(§4) Neutralizing antibody against LIF (AB-250-NA, R&D, Minneapolis, Minn.), IL-6 R (AB-227-NA, R&D) or TGF beta-1,2,3 (MAB1835, R&D) were used at 10 μg/ml otherwise stated. Neutralizing antibody were incubated one hour with conditioned media before being used for matrix remodelling assay and fibroblasts stimulation to neutralize the biological activity of selected cytokines.
(§5) Cancer Cells were grown to confluence, washed twice with PBS and then incubated in serum-free medium at 37° C. After 48 hours, conditioned medium was collected, centrifugated at 5000 g for 5 minutes to remove cell debris and the supernatant stored at −80° C. For immunobloting analysis, fibroblasts were stimulated with cancer cells conditioned media for 5 min, otherwise stated, and lysed as described in the immunbloting section. To analyse LIF secretion upon TGFβ-1 stimulation, fibroblasts were stimulated with 2 ng/ml TGF beta-1 for 1, 4, 24 or 48 h in serum-free medium and conditioned media was prepared as below for ELISA analysis.

hDF and hCAF = test: Matrix remodelling (collagen gel contraction) assay; type: cell-based, human; conditions: hLu-CAF and hBr-CAF cells, FIG. 6A
Experimental: as §3

fibroblasts [3] = test: Fibroblast contractility and pro-invasive activity induced by murine breast carcinoma cell conditioned media; type: cell-based, mouse; design: key: +: induction; −: no induction; conditions: antibodies 10 μg·ml−1
Experimental: as §1, §2, §3, §4, §5

STAT3 = STAT3 phosphorylation in fibroblasts (western blot); type: cell-based, human; conditions: hDF stimulated by TGFβ1
Excerpt: (§6) For western blot analysis, antibodies against STAT3 (#9134), pY705-STAT3 (#9145), SMAD2 (#3122), pSer465/467-SMAD2 (#3108), pY1022/1023-JAK1 (#3331), MLC2 (#3672), pThr18/19-MLC2 (#3674) were purchased from Cell Signaling (Cell Signaling Technology, Beverly Mass.), α-tubulin from sigma (T4026, Sigma, Saint Louis, Mo.); JAK1 from Biolegend (#604402, Biolegend, San Diego, Calif.), GP-130 (#sc-655) and RhoA (#sc-418, Santa Cruz Biotechnology, Santa Cruz, Calif.), and alpha-smooth muscle actin (α-SMA) from Abcam (#Ab5694, Abcam, Cambridge, Mass.). For immunofluorescence staining, antibodies against α-SMA and fibronectin were purchased from Sigma (#A2547 and F3648 respectively, Sigma, Saint Louis, Mo.). Chemical inhibitors used: Pyridone 6 (#42009, Calbiochem, Los Angeles, Calif.) was used at […], SB431542 (#1614, Tocris bioscience, Ellisville, Mo.) at 10 μM, Y27632 (#1254, Tocris bioscience, Ellisville, Mo.) and Actinomycin D (#856258, Sigma, Saint Louis, USA) at 5 μg/ml.
For immunoblotting analysis, cells were lysed on ice in lysis buffer (25 mM Tris (pH 6.8), 2% Sodium dodecyl sulfate (SDS), 5% glycerol, 1% beta-mercaptoethanol, 0.01% bromophenol blue). Equal amounts of protein from each sample were loaded on sodium dodecyl sulfate-polyacrylamide gel electrophoresis, separated, and transferred onto nitrocellulose. The immunoblots were blocked by incubation in 5% bovine serum albumin, 10 mM Tris-HCl (ph7.5), 500 mM NaCl, 0.1% Tween 20 for 30 min at room temperature, probed with specific antibodies and then with secondary antibodies using common classical methods. Immunodetection was performed using chemiluminescent HRP subtrate (#WBKLS0500, Millipore, Billerica, Mass.).

hDF [4] = test: qRT-PCR of IL6 family cytokine genes in TGFβ1-stimulated hDF; type: cell-based, human; conditions: one hour after stimulation, relative to control (Veh)
Experimental: RNA was isolated from total cell lysates using RNeasy Mini kit (#217004, Qiagen, Turnberry Ln Valencia, Calif.) according to the manufacturer's instructions. Reverse Transcription was performed using 500 ng cytoplasmic RNA using Superscript II reverse transcriptase (#18064-014, Invitrogen, Carlsbad, Calif.). Real time PCR was performed using Fast SYBR Green Master Mix ([…]; Applied Biosystems, Foster City, Calif.) in duplicates according to the recommendations of the manufacturer on an ABI Prism 7900HT sequence detection system (Applied Biosystems, Foster City, Calif.). Relative expression of the respective gene was determined after normalization to GAPDH and calculated with the following formula: relative expression level=2ddCT

hDF [5] = test: LIF ELISA of TGFβ1-stimulated hDF culture medium; type: cell-based, human; conditions: after TGFβ1 stimulation
Experimental: For the quantitative determination of LIF protein levels secreted to the media, we used the human LIF ELISA Kit (#ELH-LIF-001, Raybiotech Inc, Norcross, Ga.) following manufacturer's specifications.
as §5

SMAD2 = SMAD2 phosphorylation in fibroblasts (western blot); type: cell-based, human; conditions: hDF stimulated by TGFβ1
Excerpt: as §6
For immunoblotting analysis, cells were lysed on ice in lysis buffer (25 mM Tris (pH 6.8), 2% Sodium dodecyl sulfate (SDS), 5% glycerol, 1% beta-mercaptoethanol, 0.01% bromophenol blue). Equal amounts of protein from each sample were loaded on sodium dodecyl sulfate-polyacrylamide gel electrophoresis, separated, and transferred onto nitrocellulose. […]

[6] = A375M2 CM (h. melanoma), antibodies 10 μg·ml−1, αLIF (50)
[7] = A375P CM (h. melanoma), antibodies 10 μg·ml−1
[8] = A549 CM (h. lung carcinoma), antibodies 10 μg·ml−1
[9] = CAL27 CM (human OSCC), antibodies 10 μg·ml−1, αLIF (50)
[10] = CAL33 CM (human OSCC), antibodies 10 μg·ml−1
[11] = CAL33_LIF CM (h. engineered cell line), antibodies 10 μg·ml−1, αLIF (50)
[12] = CAL33_mock CM (h. engineered cell line), antibodies 10 μg·ml−1
[13] = CAL60 CM (human OSCC), antibodies 10 μg·ml−1
[14] = CAL166 CM (human OSCC), antibodies 10 μg·ml−1
[15] = Detroit562 CM (human OSCC), antibodies 10 μg·ml−1
[16] = LS174 CM (h. colon carcinoma), antibodies 10 μg·ml−1
[17] = MDA-MB-231 CM (breast carcinoma), antibodies 10 μg·ml−1
[18] = MDA-MB-468 CM (breast carcinoma), antibodies 10 μg·ml−1
[19] = Mel501 CM (h. melanoma), antibodies 10 μg·ml−1
[20] = Mel1205 CM (h. melanoma), antibodies 10 μg·ml−1
[21] = SCC12 CM (human OSCC), antibodies 10 μg·ml−1
[22] = SCC13 CM (human OSCC), antibodies 10 μg·ml−1
[23] = SCC25 CM (human OSCC), antibodies 10 μg·ml−1
[24] = Sbcl2 CM (h. melanoma), antibodies 10 μg·ml−1
[25] = WM35 CM (h. melanoma), antibodies 10 μg·ml−1
[26] = WM278 CM (h. melanoma), antibodies 10 μg·ml−1
[27] = WM793 CM (h. melanoma), antibodies 10 μg·ml−1

Compound	Fibroblasts contractile & pro-invasive phenotype (fibroblasts [2]; [6])	Fibroblasts contractile & pro-invasive phenotype (fibroblasts [2]; [7])	Fibroblasts contractile & pro-invasive phenotype (fibroblasts [2]; [8])	Fibroblasts contractile & pro-invasive phenotype (fibroblasts [2]; [9])	Fibroblasts contractile & pro-invasive phenotype (fibroblasts [2]; [10])	Fibroblasts contractile & pro-invasive phenotype (fibroblasts [2]; [11])	Fibroblasts contractile & pro-invasive phenotype (fibroblasts [2]; [12])	Fibroblasts contractile & pro-invasive phenotype (fibroblasts [2]; [13])	Fibroblasts contractile & pro-invasive phenotype (fibroblasts [2]; [14])	Fibroblasts contractile & pro-invasive phenotype (fibroblasts [2]; [15])	Fibroblasts contractile & pro-invasive phenotype (fibroblasts [2]; [16])	Fibroblasts contractile & pro-invasive phenotype (fibroblasts [2]; [17])	Fibroblasts contractile & pro-invasive phenotype (fibroblasts [2]; [18])	Fibroblasts contractile & pro-invasive phenotype (fibroblasts [2]; [19])	Fibroblasts contractile & pro-invasive phenotype (fibroblasts [2]; [20])	Fibroblasts contractile & pro-invasive phenotype (fibroblasts [2]; [21])	Fibroblasts contractile & pro-invasive phenotype (fibroblasts [2]; [22])	Fibroblasts contractile & pro-invasive phenotype (fibroblasts [2]; [23])	Fibroblasts contractile & pro-invasive phenotype (fibroblasts [2]; [24])	Fibroblasts contractile & pro-invasive phenotype (fibroblasts [2]; [25])	other results
CC(C)(C)c1nc2c3cc[nH]c(=O)c3c3cc(F)ccc3c2[nH]1 [P6, Pyridone 6]	−	−	−	−	−	−	−	−	−	−	−	−	−	−	−	−	−	−	−	−	fibronectin expression pattern (hDF [1]): slightly reduced; Fibroblasts contractile & pro-invasive phenotype (fibroblasts [2]; [26]): −; Fibroblasts contractile & pro-invasive phenotype (fibroblasts [2]; [27]): −; Fibroblasts contractile & pro-invasive phenotype (fibroblasts [2]; hPK CM, antibodies 10 μg·ml−1): −; pro-invasive potential (matrix remodelling) of hCAF (hDF and hCAF): required JAK signalling to sustain their pro-invasive potential; Fibroblasts contractile & pro-invasive phenotype (fibroblasts [3]; 4T1 CM (murine breast carcinoma)): −; Fibroblasts contractile & pro-invasive phenotype (fibroblasts [3]; 4T07 CM (murine breast carcinoma)): −; Fibroblasts contractile & pro-invasive phenotype (fibroblasts [3]; 67NR CM (murine breast carcinoma)): −; Fibroblasts contractile & pro-invasive phenotype (fibroblasts [3]; 410.4 CM (murine breast carcinoma)): −; STAT3 phosphorylation induced by TGFβ1 (STAT3): blocked
NC(=O)c1ccc(-c2nc(-c3ccc4c(c3)OCO4)c(-c3ccccn3)[nH]2)cc1 [SB431542]	+	+	+	+	−	+	−	+	+	+	+	+	+	−	+	+	+	+	−	+	Fibroblasts contractile & pro-invasive phenotype (fibroblasts [2]; [26]): +; Fibroblasts contractile & pro-invasive phenotype (fibroblasts [2]; [27]): +; Fibroblasts contractile & pro-invasive phenotype (fibroblasts [2]; hPK CM, antibodies 10 μg·ml−1): −
C[C@@H](N)[C@H]1CC[C@H](C(=O)Nc2ccncc2)CC1 [Y27632]																					pro-invasive fibroblast conversion induced by CAL33-LIF CM (fibroblasts [2]; CAL33-LIF CM): blocked; action of SCC12 and SCC13 CM (pro-invasive fibroblast activation) (fibroblasts [2]; SCC12 and SCC13 CM): completely abrogated
TGFβ1: TGF beta-1 cytokine (#100-21, Peprotech), used at 2 ng·ml-1																					increase of IL6 mRNA steady state levels (hDF [4]): 5 fold; increase of LIF mRNA steady state levels (hDF [4]): 100 fold; LIF in hDF cell culture medium, 24 h peak (hDF [5]): 200 pg/mL
siRNA GP130-IL6ST: siRNA targeting GP130-IL6ST (SEQ ID NO: 5 and 6), purchased from Dharmacon (chain 1 CUAAUUACAUUGUCUGGAA; chain 2 CUAAGGAGCAAUAUACUAU; listed as RNA, chemistry not given here)																					STAT3 phosphorylation induced by TGFβ1 (STAT3): hampered; SMAD2 activation by TGFβ1 (SMAD2): without affecting
